Measured values reported in the supplement of paper PMC10307832.

Key:
Assay in all cases: relative viability (nuclei count vs DMSO), 5 days (fraction); higher = more cells survive
NCI-H1944 = tested on: NCI-H1944
Summary of the method: (§1)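 Nuclei were stained with Hoechst during a one-step fixation (final 0.05% Triton X-100, 1% formaldehyde, 1 ug/ml Hoechst) carried out 5 days after dosing, then counted on 4× images. The cells, lung cancer lines in 1536-well plates, had been dosed by pin tool the day after seeding with one drug alone or a fixed anchor-drug dose plus five library-drug doses (not always all listed) in √10 steps. Relative viability is the nuclei count in treated wells divided by that in vehicle wells, and each value is the median of duplicate plates.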

LC-2-ad = tested on: LC-2-ad
Summary of the method: as §1

NCI-H596 = tested on: NCI-H596
Summary of the method: as §1

NCI-H1666 = tested on: NCI-H1666
Summary of the method: as §1

LXF-289 = tested on: LXF-289
Summary of the method: as §1

LU99A = tested on: LU99A
Summary of the method: as §1

NCI-H1651 = tested on: NCI-H1651
Summary of the method: as §1

NCI-H2087 = tested on: NCI-H2087
Summary of the method: as §1

LCLC-97TM1 = tested on: LCLC-97TM1
Summary of the method: as §1

NCI-H2342 = tested on: NCI-H2342
Summary of the method: as §1

Q: What does the source list for `Nc1ccn([C@@H]2O[C@H](CO)[C@@H](O)[C@@H]2O)c(=O)n1` [Cytarabine] + NC(=O)Nc1cc(-c2cccc(F)c2)sc1C(=O)N[C@H]1CCCNC1 [AZD7762] (partner 0.2 µM)?
A: relative viability (NCI-H1944; first compound 0.005 µM): 0.353; relative viability (NCI-H1944; first compound 0.01581 µM): 0.204; relative viability (NCI-H1944; first compound 0.05 µM): 0.159; relative viability (NCI-H1944; first compound 0.1581 µM): 0.12; relative viability (NCI-H1944; first compound 0.5 µM): 0.135; relative viability (LC-2-ad; first compound 0.005 µM): 0.811; relative viability (LC-2-ad; first compound 0.01581 µM): 0.681; relative viability (LC-2-ad; first compound 0.05 µM): 0.674; relative viability (LC-2-ad; first compound 0.1581 µM): 0.245; relative viability (LC-2-ad; first compound 0.5 µM): 0.208; relative viability (NCI-H596; first compound 0.005 µM): 1; relative viability (NCI-H596; first compound 0.01581 µM): 1.01; relative viability (NCI-H596; first compound 0.05 µM): 0.787; relative viability (NCI-H596; first compound 0.1581 µM): 0.419; relative viability (NCI-H596; first compound 0.5 µM): 0.343; relative viability (NCI-H1666; first compound 0.005 µM): 0.943; relative viability (NCI-H1666; first compound 0.01581 µM): 0.768; relative viability (NCI-H1666; first compound 0.05 µM): 0.666; relative viability (NCI-H1666; first compound 0.1581 µM): 0.444; relative viability (NCI-H1666; first compound 0.5 µM): 0.413; relative viability (LXF-289; first compound 0.005 µM): 0.927; relative viability (LXF-289; first compound 0.01581 µM): 0.85; relative viability (LXF-289; first compound 0.05 µM): 0.442; relative viability (LXF-289; first compound 0.1581 µM): 0.123; relative viability (LXF-289; first compound 0.5 µM): 0.0877; relative viability (LU99A; first compound 0.005 µM): 0.444; relative viability (LU99A; first compound 0.01581 µM): 0.362; relative viability (LU99A; first compound 0.05 µM): 0.305; relative viability (LU99A; first compound 0.1581 µM): 0.352; relative viability (LU99A; first compound 0.5 µM): 0.115; relative viability (NCI-H1651; first compound 0.005 µM): 0.484; relative viability (NCI-H1651; first compound 0.01581 µM): 0.447; relative viability (NCI-H1651; first compound 0.05 µM): 0.297; relative viability (NCI-H1651; first compound 0.1581 µM): 0.114; relative viability (NCI-H1651; first compound 0.5 µM): 0.0958; relative viability (NCI-H2087; first compound 0.005 µM): 1.28; relative viability (NCI-H2087; first compound 0.01581 µM): 1.56; relative viability (NCI-H2087; first compound 0.05 µM): 1.11; relative viability (NCI-H2087; first compound 0.1581 µM): 0.709; relative viability (NCI-H2087; first compound 0.5 µM): 0.231; relative viability (LCLC-97TM1; first compound 0.005 µM): 0.14; relative viability (LCLC-97TM1; first compound 0.01581 µM): 0.0846; relative viability (LCLC-97TM1; first compound 0.05 µM): 0.0944; relative viability (LCLC-97TM1; first compound 0.1581 µM): 0.0643; relative viability (LCLC-97TM1; first compound 0.5 µM): 0.0575; relative viability (NCI-H2342; first compound 0.005 µM): 0.472; relative viability (NCI-H2342; first compound 0.01581 µM): 0.385; relative viability (NCI-H2342; first compound 0.05 µM): 0.397; relative viability (NCI-H2342; first compound 0.1581 µM): 0.377; relative viability (NCI-H2342; first compound 0.5 µM): 0.301
